Values quoted from earlier work, collected in patent publication US20150246117A1, “TREATMENT OF TYPE 2 DIABETES AND RELATED CONDITIONS” (priority 2012, published 2015).
Like-named read-outs stand apart in the source and are kept apart here. Each block holds one compound with its values, some of them ahead of it.

Assays:
[1] = for hypoglycemia in combination therapy: combined with sulfonylurea, insulin secretagogue or insulin
[2] = in vivo
[3] = co-administration of 100 mg sitagliptin for 10 days
[4] = test system: CYP3A4/5; conditions: coadministration with strong CYP3A4/5 inhibitors (e.g., ketoconazole)

Compound: CC#CCn1c(N2CCC[C@@H](N)C2)nc2c1c(=O)n(Cc1nc(C)c3ccccc3n1)c(=O)n2C [linagliptin]
hypoglycemia in combination therapy [1]: Hypoglycemia was more commonly
Half-life (after 5 mg dose): >100 h after 5 mg

Compound: N[C@@H](CC(=O)N1CCc2c(nc(C(F)(F)F)nc2C(F)(F)F)C1)CN1CC(F)(F)CCC1=O [Gemigliptin]
adverse events / tolerability in clinical studies ([1]; human, in vivo): No serious adverse events recorded.
Half-life (in vivo): 17 to 21 h

Compound: Cn1c(=O)cc(N2CCC[C@@H](N)C2)n(Cc2ccccc2C#N)c1=O [Alogliptin]
adverse events / tolerability in clinical studies ([1]; human, in vivo): The agent is relatively well tolerated
rate of skin events, primarily pruritus ([1]; human, in vivo): finding being a marginally higher rate
Half-life (in vivo): 12.4 to 21.4 h

Compound: Dulaglutide
adverse events / tolerability in clinical studies ([1]; human, in vivo): Gastrointestinal adverse events reported

Compound: CCCCCCCCCCCCCCCC(=O)N[C@@H](CCC(=O)NCCCC[C@H](NC(=O)[C@H](C)NC(=O)[C@H](C)NC(=O)[C@H](CCC(N)=O)NC(=O)CNC(=O)[C@H](CCC(=O)O)NC(=O)[C@H](CC(C)C)NC(=O)[C@H](Cc1ccc(O)cc1)NC(=O)[C@H](CO)NC(=O)[C@H](CO)NC(=O)[C@@H](NC(=O)[C@H](CC(=O)O)NC(=O)[C@H](CO)NC(=O)[C@@H](NC(=O)[C@H](Cc1ccccc1)NC(=O)[C@@H](NC(=O)CNC(=O)[C@H](CCC(=O)O)NC(=O)[C@H](C)NC(=O)[C@@H](N)Cc1cnc[nH]1)[C@@H](C)O)[C@@H](C)O)C(C)C)C(=O)N[C@@H](CCC(=O)O)C(=O)N[C@@H](Cc1ccccc1)C(=O)N[C@H](C(=O)N[C@@H](C)C(=O)N[C@@H](Cc1c[nH]c2ccccc12)C(=O)N[C@@H](CC(C)C)C(=O)N[C@H](C(=O)N[C@@H](CCCNC(=N)N)C(=O)NCC(=O)N[C@@H](CCCNC(=N)N)C(=O)NCC(=O)O)C(C)C)[C@@H](C)CC)C(=O)O [liraglutide]
Immunogenicity-related events, including urticaria ([1]; treated patients in clinical trials (comparator-treated 0.4%)): Victoza-treated patients (0.8%) than among

Second part, led by results:

excretion in milk, animal studies [2]: excretion of vildagliptin
Compound: N#C[C@@H]1CCCN1C(=O)CNC12CC3CC(CC(O)(C3)C1)C2 [vildagliptin]

patients showing antibodies against the drug ([1]; human, in vivo): (compared to exenatide); 49% of patients
Compound: taspoglutide

hypoglycemia in combination therapy [1]: There is an increased risk of
fertility / fetal harm, animal studies or animal data [2]: JANUVIA did not impair
increase in area under the curve (AUC) of digoxin [3]: curve (AUC, 11%)
Half-life (after oral): 12.4 h after
Compound: N[C@@H](CC(=O)N1CCn2c(nnc2C(F)(F)F)C1)Cc1cc(F)c(F)cc1F [sitagliptin]

Peripheral edema ([1]; combination with a thiazolidinedione (TZD) vs placebo and TZD): Peripheral edema was reported more
saxagliptin concentrations [4]: increases
Half-life (after oral 5 mg): 2.5 h after
Compound: N#C[C@@H]1C[C@@H]2C[C@@H]2N1C(=O)[C@@H](N)C12CC3CC(CC(O)(C3)C1)C2 [saxagliptin]

Half-life (in vivo): 10 to 13 h
Compound: O=C(CN[C@@H]1CCNC1)N1CCC[C@H]1B(O)O [dutogliptin]

Half-life (in vivo): 3 to 4 h
Compound: COc1ccc2cc3[n+](cc2c1OC)CCc1cc2c(cc1-3)OCO2 [berberine]
adverse events / tolerability in clinical studies ([1]; human, in vivo): Transient gastrointestinal adverse
